According to patent publication US20150150842A1, “DESETHYLAMIODARONE COMPOSITIONS” (priority 2012, published 2015):
Several values for one entry are separate records, joined by “and”; a condition that tells them apart may be missing. Identical values can stand only once.

Assays:
[1] = test system: dog atrial and ventricular tissue; test: Atrial and ventricular action potential parameters after chronic oral treatment of non-instrumented dogs; type: in vivo, Beagle dogs; details: 500 ms cycle length, 4-week oral DEA 30 or AMIO 45 mg/kg/day
[2] = Plasma and tissue DEA and AMIO levels in non-instrumented dogs; details: 4-week oral AMIO 45 mg/kg/day, individual dogs 1 and 2
[3] = Cardiac, liver and lung tissue DEA and AMIO levels in dogs with atrial fibrillation and structural atrial remodelling; details: for concentration at 4 weeks: both, Beagle, dog, oral, 50 mg/kg/day
Method: (§1) The body weight of animals was monitored for strict adherence to the desired dose.
(§2) The right atrial effective refractory period (ERP) was measured using the S1 -S2 protocol at cycle lengths of 150 and 300 ms. In addition ERP monitoring, 10-second long burst stimuli were applied at 800/min frequency to induce atrial fibrillation and the incidence of AF, the duration of AF episodes were measured before commencement of oral drug therapy and then after the initiation of therapy every 4 days.
Cardiac tissue drug levels were measured in right atrial, left atrial, right ventricular and left ventricular tissue samples. Following the sacrifice of the animals (the subsequent day after the 4-week treatment), tissue samples were taken before tissue preparations were isolated for in vitro studies.

conscious rats = test system: conscious rats
Method: The present experiments were performed on male, Sprague-Dawley CFY rats weighing 260-300 g. During a preliminary open-chest surgery we applied a loose silk loop around the left main coronary artery, and then the chest was closed (Leprán et al., 1983). Seven-eight days after the preliminary surgery—after complete recovery and healing—the loose silk loop was tightened to occlude the coronary artery in conscious, freely moving animals. During the first 15 min of myocardial infarction a bipolar ECG was recorded continuously (PowerLab 8SP, ADInstruments, Great Britain).
We followed the survival rate during the acute phase (first 15 min) and during the subsequent 16 hours after coronary artery occlusion. The incidence and duration of arrhythmias in the acute phase were evaluated according to the Lambeth Conventions (Walker et al., 1988), i.e. ventricular fibrillation, ventricular tachycardia, and other types of arrhythmias, including ventricular extrasystoles, bigeminy, and salvos. The size of myocardial infarction was measured in the animals surviving for 16 hours after coronary artery occlusion using nitrotetrazolium-blue dye staining.
Long-term oral pretreatment was applied for 1 month before the coronary artery occlusion. […] Control animals were given the vehicle in a volume of 5 ml/kg.

[4] = test system: conscious dogs with structural atrial remodelling; test: Chronic rapid atrial pacing induced atrial remodelling and burst-induced atrial fibrillation in conscious dogs
Method: The experiments were performed on chronically instrumented Beagle dogs of both sexes, weighing 12-13 kg. The animals were subjected to the following surgery under general anaesthesia: pacemakers were implanted into bilateral subcutaneous pockets in the neck area (Logos, Karios; Biotronik Hungaria Ltd.) and were attached to pacemaker electrodes implanted into the right ventricle and right atrium. Radiofrequency catheter ablation was performed in each animal to achieve third degree atrioventricular (AV) block so that during subsequent rapid atrial pacing (400/min) the ventricles are protected from high heart rates. […] On the seventh day after surgery, following the measurement of right atrial effective refractory period the atrial pacemaker was set to a frequency of 400/min to achieve atrial electrical and structural remodelling. Right atrial rapid pacing is necessary to maintain for 3 months in this model to obtain complete remodeling of the atria signalled by the reduction of right atrial effective refractory period below 80 ms.
as §1, §2

rats = test: Chronic 28-day non-GLP toxicology in rats
[5] = dogs with AF, 4-week oral AMIO 50 mg/kg/day
[6] = dogs with structural atrial remodelling, 4-week oral AMIO 50 mg/kg/day

CCCCc1oc2ccccc2c1C(=O)c1cc(I)c(OCCN(CC)CC)c(I)c1 [AMIO, amiodarone]
Vmax (V/s), Dog atrium ([1]; n = 3, CONTROL 249.7 ± 52.7): 252.9 ± 56.7 V/s | APD90 (ms), Dog atrium ([1]; n = 4, CONTROL 123.9 ± 9.6): 140.8 ± 12.4 ms | Kidney AMIO level [2]: 112.173 μg/tissue g | Left Ventricle AMIO level [2]: 81.928 μg/tissue g | Liver AMIO level [2]: 177.317 μg/tissue g | Lung AMIO level [2]: 178.360 μg/tissue g | Right Atrium AMIO level [2]: 75.854 μg/tissue g and 152.023 μg/tissue g | Liver and lung tissue concentrations of DEA in chronic AMIO treated dogs compared to chronic DEA treated dogs ([3]; AF model dogs, oral AMIO 50 mg/kg/day vs DEA 25 mg/kg/day): more than three times higher | concentration at 4 weeks ([3]; left atrium, Left atrium AMIO level, Mean, dogs with AF, 4-week oral AMIO 50 mg/kg/day, n=3): 35200 ng/g | concentration at 4 weeks ([3]; left atrium, Left atrium AMIO level, individual animals, dogs with AF, 4-week oral AMIO 50 mg/kg/day): 32600 ng/g | concentration at 4 weeks ([3]; left ventricle, Left ventricle AMIO level, Mean, dogs with AF, 4-week oral AMIO 50 mg/kg/day, n=3): 34400 ng/g | concentration at 4 weeks ([3]; left ventricle, Left ventricle AMIO level, individual animals, dogs with AF, 4-week oral AMIO 50 mg/kg/day): 36600 ng/g | concentration at 4 weeks ([3]; right atrium, Right atrium AMIO level, Mean, dogs with AF, 4-week oral AMIO 50 mg/kg/day, n=3): 24600 ng/g | concentration at 4 weeks ([3]; right ventricle, Right ventricle AMIO level, Mean, dogs with AF, 4-week oral AMIO 50 mg/kg/day, n=3): 34700 ng/g | concentration at 4 weeks ([3]; right ventricle, Right ventricle AMIO level, individual animals, dogs with AF, 4-week oral AMIO 50 mg/kg/day): 40800 ng/g | Left atrium AMIO level, individual animals [3, 5]: 39.045 μg/tissue g and 33.89 μg/tissue g | Left ventricle AMIO level, individual animals [3, 5]: 42.573 μg/tissue g and 24.061 μg/tissue g | Right atrium AMIO level, individual animals [3, 5]: 47.005 μg/tissue g and 19.936 μg/tissue g and 6.933 μg/tissue g | Right ventricle AMIO level, individual animals [3, 5]: 37.033 μg/tissue g and 26.349 μg/tissue g | Liver AMIO level, Mean ± SE [3, 6]: 126.8 ± 41.58 μg/tissue g | Liver AMIO level, individual animals [3, 6]: 123.961 μg/tissue g and 200.27 μg/tissue g and 56.314 μg/tissue g | Lung AMIO level, Mean ± SE [3, 6]: 215.1 ± 60.12 μg/tissue g | Lung AMIO level, individual animals [3, 6]: 312.24 μg/tissue g and 227.793 μg/tissue g and 105.152 μg/tissue g | Death due to the 1 month treatment (conscious rats; 1 month oral pretreatment): No death occurred | Survival rate during the acute phase of experimental myocardial infarction (conscious rats; 1 month oral pretreatment): significantly improved | Behavioral changes, body weight increments (conscious rats; 1 month oral pretreatment, AMIO 30 or 100, DEA 15 or 50 mg/kg/day): Neither AMIO nor DEA produced any behavioral changes of the animals, or in body weight increments | Arrhythmia score (conscious rats; first 15 min after coronary artery occlusion, 1 month oral AMIO 100 or DEA 50 mg/kg/day, control 4.77±0.33): 2.05±0.52 | Incidence of ventricular fibrillation (conscious rats; larger doses (AMIO 100, DEA 50 mg/kg/day), after coronary artery occlusion): significantly decreased | Mood, behaviour, appetite and body weight ([4]; dogs, 4-week oral, DEA 25, AMIO 50 mg/kg/day): loss of appetite followed by a reduction in body weight | Lg AF duration, Following 4-week treatment, individual animals ([4]; oral AMIO 50 mg/kg/day, Control (before) 2.59, 3.12, 4.35): 1.35 and 0.88 and 0.12 | AF duration (s), Following 4-week treatment, individual animals ([4]; oral AMIO 50 mg/kg/day, Control (before) 386.5, 1 302.9, 2 2663.7): 22.5 s and 7.5 s and 1.31 s | ERP, Following 4-week treatment, individual animals ([4]; oral AMIO 50 mg/kg/day, animals 2011/01, 2011/08, 2011/9, Control (before) 90, <80, 80): 100 ms (2×) and 130 ms | Incidence of AF, Following 4-week treatment, individual animals ([4]; oral AMIO 50 mg/kg/day, burst-induced AF, Control (before) 100%, 90%, 67%): 40% and 10% (2×) | Lg AF duration, Following 4-week treatment, Mean ± SE ([4]; oral AMIO 50 mg/kg/day, n=3, Control (before) 3.35 ± 0.52): 0.78 ± 0.36 | Incidence of AF, Following 4-week treatment, Mean ± SE ([4]; oral AMIO 50 mg/kg/day, n=3, Control (before) 88.0 ± 10.54): 20.0 ± 10.0 % | AF duration (s), Following 4-week treatment, Mean ± SE ([4]; oral AMIO 50 mg/kg/day, n=3, Control (before) 8117.7 ± 7277.8): 10.4 ± 6.29 s | Incidence and duration of atrial fibrillation ([4]; three animals, 4-week oral treatment, DEA 25, AMIO 50 mg/kg/day, accompanied by prolongation of the ERP): showed a decreasing tendency | Hepatic function alterations (total cholesterol, alkaline phosphatase [ALP]) (rats; 28-day oral AMIO 200 mg/kg/day compared to DEA 100 mg/kg/day): more robust | Alveolar histiocytosis in the lungs (rats; 28-day oral AMIO 200 mg/kg/day or DEA 100 mg/kg/day): alveolar histiocytosis was detected | Detection of the administered drug 14 days after the completion of administration (rats; 28-day oral AMIO 200 mg/kg/day or DEA 100 mg/kg/day, plasma (DEA: plasma or cardiac tissue)): could be detected in plasma samples | Increase in body weight following 28-day treatment (rats; AMIO 200 mg/kg/day or DEA 100 mg/kg/day, normal increase 44 g): 13 g | Food consumption and appetite (rats; first 3 weeks of 200 mg/kg/day AMIO, compared to control and 100 mg/kg/day DEA treated animals): reduced
